Laboratory results published in US10167262B2, “Herbicidal substituted 3-arylpyrazoles” (FMC CORPORATION, priority 2014, dated 2019).
“And” between values parts separate entries of the source, which are not always exact repeats. Equal entries are not always repeated.

How the values were obtained:
Format in all cases: in vivo
[1] = test system: palmer pigweed (AMAPA, Amaranthus palmeri); assay: Test H postemergence mixture test of compound 39 with commercial herbicides, observed and Colby expected effect 0-100; details: commercial herbicide alone, 14 days after treatment
Description: (§1) This test evaluated the effect of mixtures of compound 39 with three commercial herbicides on five plant species. Seeds of plant species selected from corn (ZEAMD, Zea mays), soybean (GLXMA, Glycine max), palmer pigweed (AMAPA, Amaranthus palmeri), waterhemp (common waterhemp, AMATA, Amaranthus rudis), and Kochia (KCHSC, Kochia scoparia) were planted in pots containing Redi-Earth® planting medium (Scotts Company, 14111 Scottslawn Road, Marysville, Ohio 43041) comprising spaghnum peat moss, vermiculite, wetting agent and starter nutrients and treated with postemergence applications of test chemicals formulated in a non-phytotoxic solvent mixture which included a surfactant and applied using a volume of 299 L/ha. Each treatment was replicated four times. Treated plants and controls were maintained in a greenhouse using supplemental lighting to maintain a photoperiod of about 16 h; daytime and nighttime temperatures were about 24-30° C. and 19-21° C., respectively. Nutrients were applied using a balanced fertilizer applied through the watering system. At 14 days after treatment, all species were compared to controls and visually evaluated. Plant response ratings were calculated as the mean of the four replicates, are summarized in Tables H1 through H6, and are based on a scale of 0 to 100 where 0 is no effect and 100 is complete control. A dash (-) response means no test result.
(§2) Colby's Equation was used to determine the herbicidal effects expected from the mixtures. Colby's Equation (Colby, S. R. “Calculating Synergistic and Antagonistic Responses of Herbicide Combinations,” Weeds, 15(1), pp 20-22 (1967)) calculates the expected additive effect of herbicidal mixtures and for two active ingredients is of the form: Pa+b=Pa+Pb−(PaPb/100) • where • Pa+b is the percentage effect of the mixture expected from additive contribution of the individual components: • Pa is the observed percentage effect of the first active ingredient at the same use rate as in the mixture, and • Pb is the observed percentage effect of the second active ingredient at the same use rate as in the mixture. In the following Tables, rates are shown in grams of active ingredient per hectare (g a.i./ha); “Obsd.” is the observed effect. “Exp.” is the expected effect calculated from Colby's Equation.

[2] = test system: waterhemp (common waterhemp, AMATA, Amaranthus rudis); assay: as above; details: commercial herbicide alone, 14 days after treatment
Description: as §1, §2

[3] = test system: soybean (GLXMA, Glycine max); assay: as above; details: commercial herbicide alone, 14 days after treatment
Description: as §1, §2

[4] = test system: Kochia (KCHSC, Kochia scoparia); assay: as above; details: commercial herbicide alone, 14 days after treatment
Description: as §1, §2

corn (ZEAMD, Zea mays) = assay: as above; details: commercial herbicide alone, 14 days after treatment
Description: as §1, §2

[5] = test system: pigweed (Amaranthus retroflexus); assay: Test A pre-/postemergence greenhouse herbicide test, visual injury rating 0-100; details: 1000 g ai/ha
Procedure, shortened: (§3)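 Directed soil spray (pre) and foliar spray (post, 1–2 leaf) of solvent/surfactant-formulated compound; greenhouse ~10 d; visual injury 0–100 vs untreated controls.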

[6] = test system: large (Lg) crabgrass (Digitaria sanguinalis); assay: as above; details: 1000 g ai/ha
Procedure, shortened: as §3

[7] = test system: morningglory (Ipomoea spp.); assay: as above; details: 1000 g ai/ha
Procedure, shortened: as §3

[8] = test system: velvetleaf (Abutilon theophrasti); assay: as above; details: 1000 g ai/ha
Procedure, shortened: as §3

corn (Zea mays) = assay: as above; details: 1000 g ai/ha
Procedure, shortened: as §3

[9] = test system: wheat (Triticum aestivum); assay: as above; details: 1000 g ai/ha
Procedure, shortened: as §3

[10] = test system: giant foxtail (Setaria faberii); assay: as above; details: 1000 g ai/ha
Procedure, shortened: as §3

[11] = test system: barnyardgrass (Echinochloa crus-galli); assay: as above; details: 1000 g ai/ha
Procedure, shortened: as §3

[12] = test system: sedge, umbrella (small-flower umbrella sedge, Cyperus difformis); assay: Test B flooded paddy test, plant response rating 0-100; details: Flood, 250 g ai/ha; scale 0 to 100 (0 no effect, 100 complete control); 13 to 15 days
Procedure, shortened: (§4)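 Greenhouse pots flooded to 3 cm above soil at time of treatment received compound via the water, which stayed at that level.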

rice (Oryza sativa) = assay: as above; details: Flood, 250 g ai/ha; scale 0 to 100 (0 no effect, 100 complete control); 13 to 15 days
Procedure, shortened: as §4

[13] = test system: ducksalad (Heteranthera limosa); assay: as above; details: Flood, 250 g ai/ha; scale 0 to 100 (0 no effect, 100 complete control); 13 to 15 days
Procedure, shortened: as §4

[14] = test system: barnyardgrass (Echinochloa crus-galli); assay: as above; details: Flood, 250 g ai/ha; scale 0 to 100 (0 no effect, 100 complete control); 13 to 15 days
Procedure, shortened: as §4

Row | Compound | Plant response rating (0 to 100 scale), Pigweed ([5]; Postemergence) | Plant response rating (0 to 100 scale), Pigweed ([5]; Preemergence) | Plant response rating (0 to 100 scale), Crabgrass, Large ([6]; Postemergence) | Plant response rating (0 to 100 scale), Crabgrass, Large ([6]; Preemergence) | Plant response rating (0 to 100 scale), Morningglory ([7]; Postemergence) | Plant response rating (0 to 100 scale), Morningglory ([7]; Preemergence) | Plant response rating (0 to 100 scale), Velvetleaf ([8]; Postemergence) | Plant response rating (0 to 100 scale), Velvetleaf ([8]; Preemergence) | Plant response rating (0 to 100 scale), Corn (corn (Zea mays); Postemergence) | Plant response rating (0 to 100 scale), Corn (corn (Zea mays); Preemergence) | Plant response rating (0 to 100 scale), Wheat ([9]; Postemergence) | Plant response rating (0 to 100 scale), Wheat ([9]; Preemergence) | Plant response rating (0 to 100 scale), Foxtail, Giant ([10]; Postemergence) | Plant response rating (0 to 100 scale), Foxtail, Giant ([10]; Preemergence) | Plant response rating (0 to 100 scale), Barnyardgrass ([11]; Postemergence) | Plant response rating (0 to 100 scale), Barnyardgrass ([11]; Preemergence) | Plant response rating, Sedge, Umbrella [12] | Plant response rating, Rice (rice (Oryza sativa)) | Plant response rating, Ducksalad [13] | Plant response rating, Barnyardgrass [14] | further results
1 | CCOC(=O)c1ccccc1S(=O)(=O)NC(=O)Nc1nc(Cl)cc(OC)n1 [Chlorimuron-ethyl, chlorimuron-ethyl] |  |  |  |  |  |  |  |  |  |  |  |  |  |  |  |  |  |  |  |  | AMAPA Obsd. (observed effect) ([1]; 0.25 g a.i./ha): 65; AMAPA Obsd. (observed effect) ([1]; 1 g a.i./ha): 86; AMATA Obsd. (observed effect) ([2]; 0.25 g a.i./ha): 77; AMATA Obsd. (observed effect) ([2]; 1 g a.i./ha): 76; GLXMA Obsd. (observed effect) ([3]; 0.25 g a.i./ha): 0; GLXMA Obsd. (observed effect) ([3]; 1 g a.i./ha): 0; KCHSC Obsd. (observed effect) ([4]; 0.25 g a.i./ha): 88; KCHSC Obsd. (observed effect) ([4]; 1 g a.i./ha): 97; ZEAMD Obsd. (observed effect) (corn (ZEAMD, Zea mays); 0.25 g a.i./ha): 0; ZEAMD Obsd. (observed effect) (corn (ZEAMD, Zea mays); 1 g a.i./ha): 33
2 | Clc1cc(Cl)cc(-c2n[nH]cc2C(=NN2CCOCC2)c2ccccc2)c1 [Compound 55] | 100 | 90 | 0 | 0 | 0 | 0 | 100 | 80 | 0 | 0 | 0 | 0 | 0 | 0 | 0 | 0 | 0 | 0 | 0 | 0 | 
3 | Clc1cccc(NN=C(c2ccccc2)c2c[nH]nc2-c2cc(Cl)cc(Cl)c2)c1 [Compound 56] | 90 | 100 | 0 | 0 | 0 | 0 | 90 | 90 | 0 | 0 | 0 | 0 | 0 | 0 | 0 | 0 | 0 | 0 | 0 | 0 | 
4 | Clc1ccc(NN=C(c2ccccc2)c2c[nH]nc2-c2cc(Cl)cc(Cl)c2)cc1 [Compound 65] | 90 | 80 | 0 | 0 | 30 | 0 | 90 | 80 | 0 | 0 | 0 | 0 | 0 | 0 | 0 | 0 | 0 | 0 | 0 | 0 | 
5 | N=C(c1ccccc1)c1c[nH]nc1-c1cc(F)cc(F)c1 [Compound 67] | 80 | 100 | 0 | 0 | 0 | 0 | 90 | 100 | 0 | 0 | 0 | 0 | 0 | 0 | 0 | 0 | 0 | 0 | 0 | 0 | 
6 | CS(=O)(=O)c1ccc(C(=O)C2C(=O)CCCC2=O)c([N+](=O)[O-])c1 [Mesotrione, mesotrione] |  |  |  |  |  |  |  |  |  |  |  |  |  |  |  |  |  |  |  |  | AMAPA Obsd. (observed effect) ([1]; 4 g a.i./ha): 78 and 72; AMATA Obsd. (observed effect) ([2]; 4 g a.i./ha): 79 and 92; GLXMA Obsd. (observed effect) ([3]; 4 g a.i./ha): 64 and 62; KCHSC Obsd. (observed effect) ([4]; 4 g a.i./ha): 79 and 72; ZEAMD Obsd. (observed effect) (corn (ZEAMD, Zea mays); 4 g a.i./ha): 0
7 | COc1cc(OC)nc(NC(=O)NS(=O)(=O)c2ncccc2C(=O)N(C)C)n1 [Nicosulfuron, nicosulfuron] |  |  |  |  |  |  |  |  |  |  |  |  |  |  |  |  |  |  |  |  | AMAPA Obsd. (observed effect) ([1]; 0.25 g a.i./ha): 3; AMAPA Obsd. (observed effect) ([1]; 1 g a.i./ha): 100; AMATA Obsd. (observed effect) ([2]; 0.25 g a.i./ha): 63; AMATA Obsd. (observed effect) ([2]; 1 g a.i./ha): 78; GLXMA Obsd. (observed effect) ([3]; 0.25 g a.i./ha): 0; GLXMA Obsd. (observed effect) ([3]; 1 g a.i./ha): 51; KCHSC Obsd. (observed effect) ([4]; 0.25 g a.i./ha): 43; KCHSC Obsd. (observed effect) ([4]; 1 g a.i./ha): 89; ZEAMD Obsd. (observed effect) (corn (ZEAMD, Zea mays); 0.25 g a.i./ha): 0; ZEAMD Obsd. (observed effect) (corn (ZEAMD, Zea mays); 1 g a.i./ha): 0
